From patent US6730694B1, “sPLA2 inhibitors” (Eli Lilly and Company, priority 2003, dated 2004)

Experiments:
[1] = target: T1, recombinant human secreted phospholipase A2 (Homo sapiens, UniProt P14555); test: Chromogenic assay of recombinant human secreted phospholipase A2 inhibition; format: biochemical; conditions: diheptanoyl thio-PC substrate, pH 7.5, 40° C., 30 minutes, absorbance at 405 nanometers; read-out: Inhibition of human secreted PLA2 IC50 ± mean deviation (3-4 tests)
T1 sequence (P14555 21-144): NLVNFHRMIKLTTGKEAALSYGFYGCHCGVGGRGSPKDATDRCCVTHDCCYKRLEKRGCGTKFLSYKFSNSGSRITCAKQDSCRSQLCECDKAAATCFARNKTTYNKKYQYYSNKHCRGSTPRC
Text: The following chromogenic assay procedure was used to identify and evaluate inhibitors of recombinant human secreted phospholipase A2. The assay described herein has been adapted for high volume screening using 96 well microtiter plates. A general description of this assay method is found in the article, “Analysis of Human Synovial Fluid Phospholipase A2 on Short Chain Phosphatidylcholine-Mixed Micelles: Development of a Spectrophotometric Assay Suitable for a Microtiterplate Reader”, by Laure J. Reynolds, Lori L. Hughes, and Edward A Dennis, Analytical Biochemistry, 204, pp. 190-197, 1992 (the disclosure of which is incorporated herein by reference):
Adjust pH to 4.5 with acetic acid […]
A measured volume of racemic dipheptanoyl thio PC supplied in chloroform at a concentration of 100 mg/ml is taken to dryness and redissolved in 10 millimolar […]
5. Read absorbance of wells at 405 nanometers with an automatic plate reader.
All compounds were tested in triplicate. […] Compounds initially found to be active were reassayed to confirm their activity and, if sufficiently active, IC50 values were determined. […] In all cases, % inhibition measured at 405 nanometers generated by enzyme reactions containing inhibitors relative to the uninhibited control reactions was determined. […] IC50 values were determined by plotting log concentration versus inhibition values in the range from 10-90% inhibition.

IC50 [1]: 5.5 µM | melting point: 169 to 172 °C
Structure (SMILES): CCc1c(C(=O)C(N)=O)c2ccsc2n1Cc1ccccc1 [Example 1, 2-(6-Benzyl-5-ethyl-6H-thieno[2,3-b]pyrrol-4-yl)-2-oxoacetamide]
